In patent EP4603105A1, “PHARMACEUTICAL COMPOSITION CONTAINING CYCLIC COMPOUND HAVING SELECTIVE KRAS INHIBITORY EFFECT AGAINST HRAS AND NRAS” (CHUGAI SEIYAKU KABUSHIKI KAISHA, priority 2022, dated 2024):
*1 amine or outer side, *2 acyl side, *3 side chain or, on linkers, in order; H or OH if unused. Where a SMILES comes first, the peptide text is derived from it. Bridges are numbered along the chain shown (N, C = ends). [ ]: non-standard residue; d: D form. The star is where a group is joined. ξ: configuration not given here. hPhe(3,5-F2-4-CF3) = N[C@@H](CCc1cc(F)c(C(F)(F)F)c(F)c1)C(=O)O; hPhe(3-Cl-4-CF3) = N[C@@H](CCc1ccc(C(F)(F)F)c(Cl)c1)C(=O)O; NPrPhe(4-CF3) = CCCN[C@@H](Cc1ccc(C(F)(F)F)cc1)C(=O)O; NPrPhe(4-Me) = CCCN[C@@H](Cc1ccc(C)cc1)C(=O)O; X15 = CCCN([C@@H](Cc1ccccc1)C(=O)[*:2])[*:1]; X8 = CCCN([C@@H](COCCC(C)C)C(=O)[*:2])[*:1]; NMeGly(cPent) = CN[C@H](C(=O)O)C1CCCC1; X3 = CCC[C@](C)(N[*:1])C(=O)[*:2]; NMeD = CN[C@@H](CC(=O)O)C(=O)O; NMeL = CN[C@@H](CC(C)C)C(=O)O; ξNMeD = CNC(CC(=O)O)C(=O)O; Morpholide = C1CN(*)CCO1; NMeA = CN[C@@H](C)C(=O)O; Ac5c = NC1(C(=O)O)CCCC1; Aze = O=C(O)[C@@H]1CCN1; Ac4c = NC1(C(=O)O)CCC1; ξP = O=C(O)C1CCCN1; NEtG = CCNCC(=O)O; Sar = CNCC(=O)O

Legend:
[1] = system: human lung cancer strain NCI-H441; type: cell-based
Outline: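 Signal came from […] measured per well once the reagent was added. Beforehand, cells were cultured at 37°C and 5% carbon dioxide on a compound series serially diluted in dimethyl sulfoxide.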

HRAS wild-type protein = HRAS wild-type protein (Homo sapiens, UniProt P01112); assay: Binding to HRAS by surface plasmon resonance (SPR), KD and KD ratio to KRAS
Chain of HRAS wild-type protein (P01112 whole entry): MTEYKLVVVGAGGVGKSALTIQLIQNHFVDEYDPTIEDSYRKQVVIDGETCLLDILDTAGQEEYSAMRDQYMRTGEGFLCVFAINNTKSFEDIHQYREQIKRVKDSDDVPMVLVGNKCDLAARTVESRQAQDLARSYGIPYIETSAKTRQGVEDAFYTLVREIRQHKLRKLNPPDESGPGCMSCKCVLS
Outline: (§1)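 Each cycle, GDP-bound biotin-Avi RAS was captured (~100–300 RU), compound concentrations were injected low to high for 75 s each at 100 µL/min, then the chip was regenerated. Buffer: HBS pH 7.4, 10 mM MgCl2, 10 µM GDP, 1 mM DTT, 4% DMSO; 30°C. KD from a 1:1 binding model.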

[2] = target: GDP-bound NRAS wild-type protein (Homo sapiens, UniProt P01111); assay: Binding to NRAS by surface plasmon resonance (SPR), KD and KD ratio to KRAS
Chain of GDP-bound NRAS wild-type protein (P01111 whole entry): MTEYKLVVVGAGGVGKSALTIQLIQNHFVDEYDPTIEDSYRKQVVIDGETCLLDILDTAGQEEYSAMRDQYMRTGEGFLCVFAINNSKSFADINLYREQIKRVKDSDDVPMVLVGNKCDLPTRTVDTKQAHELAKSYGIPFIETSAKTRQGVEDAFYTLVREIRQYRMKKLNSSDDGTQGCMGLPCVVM
Outline: as §1

[3] = ratio of the KD value with respect to HRAS wild-type protein to the KD value with respect to KRAS
[4] = ratio of the KD value with respect to GDP-bound NRAS wild-type protein to the KD value with respect to KRAS
[5] = ratio of KD for HRAS wild-type protein to KD for KRAS
[6] = ratio of KD for GDP-bound NRAS wild-type protein to KD for KRAS

Compound	IC50 [1] [µM]	HRAS /KRAS (HRAS wild-type protein; [3])	NRAS /KRAS [2, 4]	HRAS /KRAS (HRAS wild-type protein; [5])	NRAS /KRAS [2, 6]	HRAS /KRAS (HRAS wild-type protein; ratio of KD value for HRAS wild-type protein to KD value for KRAS (SPR))	NRAS /KRAS ([2]; ratio of KD value for GDP-bound NRAS wild-type protein to KD value for KRAS (SPR))
CC[C@H](C)[C@@H]1NC(=O)[C@H](CC(C)C)N(C)C(=O)C[C@@H](C(=O)N2CCOCC2)N(C)C(=O)[C@H](C2CCCC2)N(C)C(=O)C2(CCCC2)NC(=O)[C@@H]2CCCN2C(=O)[C@H](CCc2ccc(C(F)(F)F)c(Cl)c2)NC(=O)CN(C)C(=O)[C@H](Cc2ccc(OC(F)(F)F)cc2)N2C/C=C\CC[C@@H](C2=O)N(C)C(=O)CN(C)C1=O [PP0610]	0.689	B (a compound having 3 or more and less than 10 is denoted as B)	B (a compound having 3 or more and less than 10 is denoted as B)	–	–	–	–
CCO[C@@H]1C[C@H]2C(=O)NC3(CCC3)C(=O)N(C)[C@@H](C3CCCC3)C(=O)N(C)[C@H](C(=O)N(C)C)CC(=O)N(C)[C@@H](CC(C)C)C(=O)N[C@@H]([C@@H](C)CC)C(=O)N3CC[C@H]3C(=O)N(C)[C@H]3CC(C)=CCN(C3=O)[C@@H](Cc3ccc(C(F)(F)F)cc3)C(=O)N(C)CC(=O)N[C@@H](CCc3cc(F)c(C(F)(F)F)c(F)c3)C(=O)N2C1 [PP1033]	0.0672	–	–	C (A compound having a KD ratio of 0.1 or more and less than 3 is denoted as C)	C (A compound having a KD ratio of 0.1 or more and less than 3 is denoted as C)	–	–
CCO[C@@H]1C[C@H]2C(=O)NC3(CCC3)C(=O)N(C)[C@@H](C3CCCC3)C(=O)N(CCC3CCCC3)[C@H](C(=O)N3CCOCC3)CC(=O)N(C)[C@@H](CC)C(=O)N[C@@H]([C@@H](C)CC)C(=O)N(C)CC(=O)N(C)[C@H]3C/C=C\CCN(C3=O)[C@@H](Cc3ccc(C(F)(F)F)cc3)C(=O)N(C)CC(=O)N[C@@H](CCc3cc(F)c(C(F)(F)F)c(F)c3)C(=O)N2C1 [PP0981]	0.797	–	–	A (a compound having 10 or more and less than 20 is denoted as A)	AA (a compound having 20 or more is denoted as AA)	–	–
CCCN1C(=O)[C@@H]2CCN2C(=O)CN(C)C(=O)[C@H]([C@@H](C)CC)NC(=O)[C@H](CC(C)C)N(C)C(=O)C[C@@H](C(=O)N2CCOCC2)N(C)C(=O)[C@H](C2CCCC2)N(C)C(=O)[C@](C)(CCC)NC(=O)[C@@H]2CCCN2C(=O)[C@H](CCc2cc(F)c(C(F)(F)F)c(F)c2)NC(=O)CN(C)C(=O)[C@@H]1Cc1ccc(C(F)(F)F)cc1 [PP0794] ([NMeL]I[Sar][Aze][NPrPhe(4-CF3)][Sar][hPhe(3,5-F2-4-CF3)]P[X3][NMeGly(cPent)][NMeD]-Morpholide; lactam N-11)	0.122	–	–	B (a compound having 3 or more and less than 10 is denoted as B)	C (A compound having a KD ratio of 0.1 or more and less than 3 is denoted as C)	–	–
CCC[C@H]1C(=O)N[C@@H]([C@@H](C)CC)C(=O)N(C2CC2)CC(=O)N(C)[C@H]2C/C=C\CCN(C2=O)[C@@H](Cc2ccc(C)cc2)C(=O)N(C)CC(=O)N[C@@H](CCc2ccc(C3CC3)c(OC)c2)C(=O)N2C[C@H](OCC)C[C@H]2C(=O)NC2(CC(C)(C)C2)C(=O)N(C)[C@@H](C2CCCC2)C(=O)N(C)[C@H](C(=O)N(C)C)CC(=O)N1C [PP2883]	0.0762	–	–	A (a compound having 10 or more and less than 20 is denoted as A)	A (a compound having 10 or more and less than 20 is denoted as A)	–	–
CCCN1C(=O)[C@@H]2CCN2C(=O)[C@H](C)N(C)C(=O)[C@H]([C@@H](C)CC)NC(=O)[C@H](CC(C)C)N(C)C(=O)C[C@@H](C(=O)N2CCOCC2)N(C)C(=O)[C@H](C2CCCC2)N(C)C(=O)C2(CCCC2)NC(=O)[C@@H]2CCCN2C(=O)[C@H](CCc2ccc(C(F)(F)F)c(Cl)c2)NC(=O)CN(CC)C(=O)[C@@H]1Cc1ccc(C)cc1 [PP0058] ([NMeL]I[NMeA][Aze][NPrPhe(4-Me)][NEtG][hPhe(3-Cl-4-CF3)]P[Ac5c][NMeGly(cPent)][NMeD]-Morpholide; lactam N-11)	0.0258	–	–	C (A compound having a KD ratio of 0.1 or more and less than 3 is denoted as C)	C (A compound having a KD ratio of 0.1 or more and less than 3 is denoted as C)	–	–
CC[C@H](C)[C@@H]1NC(=O)[C@H](CC)N(C)C(=O)C[C@@H](C(=O)N(C)C)N(C)C(=O)[C@H](C2CCCC2)N(C)C(=O)C2(CCC2)NC(=O)[C@@H]2C[C@H](N3CCC(F)(F)CC3)CN2C(=O)[C@H](CCc2cc(F)c(C(F)(F)F)c(F)c2)NC(=O)CN(C)C(=O)[C@H](Cc2ccc(C(F)(F)F)cc2)N2CCCCC[C@@H](C2=O)N(C)C(=O)CN(C)C1=O [PP0731]	0.11	B (a compound having 3 or more and less than 10 is denoted as B)	B (a compound having 3 or more and less than 10 is denoted as B)	–	–	–	–
CCCN1C(=O)CN(C)C(=O)CN(C)C(=O)[C@H]([C@@H](C)CC)NC(=O)[C@H](CC(C)C)N(C)C(=O)CC(C(=O)N2CCOCC2)N(C)C(=O)[C@H](C2CCCC2)N(C)C(=O)C2(CCCC2)NC(=O)[C@@H]2CCCN2C(=O)[C@H](CCc2ccc(C(F)(F)F)c(Cl)c2)NC(=O)C2CCCN2C(=O)[C@@H]1Cc1ccc(C(F)(F)F)cc1 (stereo partly drawn) [PP0149] ([NMeL]I[Sar][Sar][NPrPhe(4-CF3)][ξP][hPhe(3-Cl-4-CF3)]P[Ac5c][NMeGly(cPent)][ξNMeD]-Morpholide; lactam N-11)	0.317	–	–	B (a compound having 3 or more and less than 10 is denoted as B)	C (A compound having a KD ratio of 0.1 or more and less than 3 is denoted as C)	–	–

These reach a lower IC50 [1]. Values come first.

IC50 [1] [µM]	Compound	HRAS /KRAS (HRAS wild-type protein; [3])	NRAS /KRAS [2, 4]	HRAS /KRAS (HRAS wild-type protein; [5])	NRAS /KRAS [2, 6]	HRAS /KRAS (HRAS wild-type protein; ratio of KD value for HRAS wild-type protein to KD value for KRAS (SPR))	NRAS /KRAS ([2]; ratio of KD value for GDP-bound NRAS wild-type protein to KD value for KRAS (SPR))
0.0244	CCC[C@H]1C(=O)N[C@@H]([C@@H](C)CC)C(=O)N(C)CC(=O)N(C)[C@H]2C/C=C\CCN(C2=O)[C@@H](Cc2ccc(C(F)(F)F)cc2)C(=O)N(C)CC(=O)N[C@@H](CCc2ccc(Cl)c(OC)c2)C(=O)N2C[C@H](OCC)C[C@H]2C(=O)NC2(CC(C)(C)C2)C(=O)N(C)[C@@H](C2CCCC2)C(=O)N(C)[C@H](C(=O)N(C)C)CC(=O)N1C [PP2788]	–	–	A (a compound having 10 or more and less than 20 is denoted as A)	A (a compound having 10 or more and less than 20 is denoted as A)	–	–
0.0204	CCCN1C(=O)CN(C)C(=O)CN(C)C(=O)[C@H]([C@@H](C)CC)NC(=O)[C@H](CC(C)C)N(C)C(=O)C[C@@H](C(=O)N2CCOCC2)N(C)C(=O)[C@H](C2CCCC2)N(C)C(=O)C2(CCC2)NC(=O)[C@@H]2CCCN2C(=O)[C@H](CCc2ccc(C(F)(F)F)c(Cl)c2)NC(=O)CN(C)C(=O)[C@@H]1COCCC(C)C [PP1817] ([NMeL]I[Sar][Sar][X8][Sar][hPhe(3-Cl-4-CF3)]P[Ac4c][NMeGly(cPent)][NMeD]-Morpholide; lactam N-11)	–	–	–	–	C (A compound having a KD ratio of 0.1 or more and less than 3 is denoted as C)	C (A compound having a KD ratio of 0.1 or more and less than 3 is denoted as C)
0.0178	CCC[C@H]1C(=O)N[C@@H]([C@@H](C)CC)C(=O)N(C)CC(=O)N(C)[C@H]2C/C=C\CCN(C2=O)[C@@H](Cc2ccc(C(F)(F)F)cc2)C(=O)N(C)CC(=O)N[C@@H](CCc2cc(F)c(C(F)F)c(F)c2)C(=O)N2C[C@H](OCC)C[C@H]2C(=O)NC2(CC(C)(C)C2)C(=O)N(C)[C@@H](C2CCCC2)C(=O)N(C)[C@H](C(=O)N(C)C)CC(=O)N1C [PP2780]	–	–	A (a compound having 10 or more and less than 20 is denoted as A)	A (a compound having 10 or more and less than 20 is denoted as A)	–	–
0.003	CCCN1C(=O)[C@@H]2CCN2C(=O)[C@H](C)N(C)C(=O)[C@H]([C@@H](C)CC)NC(=O)[C@H](CC(C)C)N(C)C(=O)C[C@@H](C(=O)N2CCOCC2)N(C)C(=O)[C@H](C2CCCC2)N(C)C(=O)C2(CCCC2)NC(=O)[C@@H]2CCCN2C(=O)[C@H](CCc2ccc(C(F)(F)F)c(Cl)c2)NC(=O)CN(C)C(=O)[C@@H]1Cc1ccccc1 [PP0216] ([NMeL]I[NMeA][Aze][X15][Sar][hPhe(3-Cl-4-CF3)]P[Ac5c][NMeGly(cPent)][NMeD]-Morpholide; lactam N-11)	–	–	B (a compound having 3 or more and less than 10 is denoted as B)	C (A compound having a KD ratio of 0.1 or more and less than 3 is denoted as C)	–	–
0.0028	CC[C@H](C)[C@@H]1NC(=O)[C@H](CC(C)C)N(C)C(=O)C[C@@H](C(=O)N(C)C)N(C)C(=O)[C@H](C2CCCC2)N(C)C(=O)C2(CCCC2)NC(=O)[C@@H]2CCCN2C(=O)[C@H](CCc2cc(F)c(C(F)(F)F)c(F)c2)NC(=O)CN(C)C(=O)[C@H](Cc2ccc(C(F)(F)F)cc2)N2CCCC[C@@H](C2=O)N(C)C(=O)CN(C)C1=O [PP0569]	B (a compound having 3 or more and less than 10 is denoted as B)	C (A compound having a KD ratio of 0.1 or more and less than 3 is denoted as C)	–	–	–	–
0.001	CCC[C@H]1C(=O)N[C@@H]([C@@H](C)CC)C(=O)N(C)CC(=O)N(C)[C@H]2CCCCN(C2=O)[C@@H](Cc2ccc(C(F)(F)F)cc2)C(=O)N(C)CC(=O)N[C@@H](CCc2cc(F)c(C(F)(F)F)c(F)c2)C(=O)N2C[C@H](OCC)C[C@H]2C(=O)NC2(CCC2)C(=O)N(C)[C@@H](C2CCCC2)C(=O)N(C)[C@H](C(=O)N2CCOCC2)CC(=O)N1C [PP0709]	B (a compound having 3 or more and less than 10 is denoted as B)	C (A compound having a KD ratio of 0.1 or more and less than 3 is denoted as C)	–	–	–	–
